Assay results taken from ChEMBL document CHEMBL3739323, “Design, synthesis, and biological evaluation of novel quinazolinyl-diaryl urea derivatives as potential anticancer agents” (Eur J Med Chem, 2016).
pIC50: −log10 of the molar value. Active and inactive are the calls of the source. No cut-off for these calls is given here.

Key:
[1] = Antiproliferative activity against human MGC803 cells by MTT assay; type: functional, cell-based; conditions: MGC-803
[2] = system: A549; experiment: Antiproliferative activity against human A549 cells by MTT assay; type: functional, cell-based
[3] = Cytotoxicity against human BEAS2B cells by MTT assay; type: cell-based; conditions: BEAS-2B
[4] = system: A549; experiment: Selectivity index, ratio of IC50 for human BEAS2B cells to IC50 for human A549 cells; type: functional
[5] = system: A549; experiment: Induction of apoptosis in human A549 cells assessed as late apoptotic cells at 5 uM after 6 hrs by Annexin-V-FITC/Propidium iodide staining based flow cytometric analysis (reference value: 0.41 +/- 0.19%); type: functional
[6] = system: A549; experiment: Induction of apoptosis in human A549 cells assessed as necrotic cells at 5 uM after 6 hrs by Annexin-V-FITC/Propidium iodide staining based flow cytometric analysis (reference value: 0.28 +/- 0.09%); type: functional
[7] = system: A549; experiment: Induction of apoptosis in human A549 cells assessed as early apoptotic cells at 10 uM after 6 hrs by Annexin-V-FITC/Propidium iodide staining based flow cytometric analysis (reference value: 3.83 +/- 0.49%); type: functional
[8] = system: A549; experiment: Induction of apoptosis in human A549 cells assessed as early apoptotic cells at 5 uM after 48 hrs by Annexin-V/Propidium iodide dual staining based flow cytometric analysis (reference value: 3.53 +/- 0.89%); type: functional
[9] = system: A549; experiment: Induction of apoptosis in human A549 cells assessed as late apoptotic cells at 5 uM after 48 hrs by Annexin-V/Propidium iodide dual staining based flow cytometric analysis (reference value: 1.44 +/- 0.43%); type: functional
[10] = system: A549; experiment: Induction of apoptosis in human A549 cells assessed as necrotic cells at 5 uM after 48 hrs by Annexin-V/Propidium iodide dual staining based flow cytometric analysis (reference value: 2.57 +/- 0.39%); type: functional
[11] = system: A549; experiment: Cell cycle arrest in human A549 cells assessed as accumulation at S phase at 10 uM by propidium iodide staining based flow cytometric analysis (reference value: 23.41 +/- 2.19%); type: functional
[12] = system: A549; experiment: Cell cycle arrest in human A549 cells assessed as accumulation at G0/G1 phase at 20 uM by propidium iodide staining based flow cytometric analysis (reference value: 63.82 +/- 2.66%); type: functional
[13] = system: A549; experiment: Induction of apoptosis in human A549 cells assessed as early apoptotic cells at 10 uM after 48 hrs by Annexin-V/Propidium iodide dual staining based flow cytometric analysis (reference value: 3.53 +/- 0.89%); type: functional
[14] = system: A549; experiment: Induction of apoptosis in human A549 cells assessed as late apoptotic cells at 10 uM after 48 hrs by Annexin-V/Propidium iodide dual staining based flow cytometric analysis (reference value: 1.44 +/- 0.43%); type: functional
[15] = system: A549; experiment: Cell cycle arrest in human A549 cells assessed as accumulation at G0/G1 phase at 5 uM by propidium iodide staining based flow cytometric analysis (reference value: 63.82 +/- 2.66%); type: functional
[16] = system: A549; experiment: Induction of apoptosis in human A549 cells assessed as late apoptotic cells at 20 uM after 48 hrs by Annexin-V/Propidium iodide dual staining based flow cytometric analysis (reference value: 1.44 +/- 0.43%); type: functional
[17] = system: A549; experiment: Induction of apoptosis in human A549 cells assessed as necrotic cells at 20 uM after 48 hrs by Annexin-V/Propidium iodide dual staining based flow cytometric analysis (reference value: 2.57 +/- […]%); type: functional
[18] = system: A549; experiment: Cell cycle arrest in human A549 cells assessed as accumulation at G0/G1 phase at 10 uM by propidium iodide staining based flow cytometric analysis (reference value: 63.82 +/- 2.66%); type: functional
[19] = system: A549; experiment: Disruption of mitochondrial membrane potential in human A549 cells assessed as ratio of green to red fluorescence intensity at 20 uM after 12 hrs by JC-1 staining based flow cytometric analysis; type: functional
[20] = system: A549; experiment: Induction of cell cycle arrest in human A549 cells assessed as downregulation of p-Rb(Ser780) expression after 48 hrs by Western blot analysis; type: functional, cell-based
[21] = system: A549; experiment: Induction of cell cycle arrest in human A549 cells assessed as downregulation of p-Rb(Ser807/811) expression after 48 hrs by Western blot analysis; type: functional, cell-based
[22] = system: A549; experiment: Induction of apoptosis in human A549 cells assessed as upregulation of Bax expression after 48 hrs by Western blot analysis; type: functional, cell-based
[23] = system: A549; experiment: Induction of apoptosis in human A549 cells assessed as downregulation of Bcl-2 expression after 48 hrs by Western blot analysis; type: functional, cell-based
[24] = system: A549; experiment: Induction of apoptosis in human A549 cells assessed as upregulation of caspase-8 expression after 48 hrs by Western blot analysis; type: functional, cell-based
[25] = molecular target: RAF proto-oncogene serine/threonine-protein kinase (Homo sapiens) (UniProt P04049); experiment: Inhibition of C-Raf in human A549 cells after 48 hrs by Western blot analysis; type: cell-based
Sequence of RAF proto-oncogene serine/threonine-protein kinase (Homo sapiens) (P04049 whole entry): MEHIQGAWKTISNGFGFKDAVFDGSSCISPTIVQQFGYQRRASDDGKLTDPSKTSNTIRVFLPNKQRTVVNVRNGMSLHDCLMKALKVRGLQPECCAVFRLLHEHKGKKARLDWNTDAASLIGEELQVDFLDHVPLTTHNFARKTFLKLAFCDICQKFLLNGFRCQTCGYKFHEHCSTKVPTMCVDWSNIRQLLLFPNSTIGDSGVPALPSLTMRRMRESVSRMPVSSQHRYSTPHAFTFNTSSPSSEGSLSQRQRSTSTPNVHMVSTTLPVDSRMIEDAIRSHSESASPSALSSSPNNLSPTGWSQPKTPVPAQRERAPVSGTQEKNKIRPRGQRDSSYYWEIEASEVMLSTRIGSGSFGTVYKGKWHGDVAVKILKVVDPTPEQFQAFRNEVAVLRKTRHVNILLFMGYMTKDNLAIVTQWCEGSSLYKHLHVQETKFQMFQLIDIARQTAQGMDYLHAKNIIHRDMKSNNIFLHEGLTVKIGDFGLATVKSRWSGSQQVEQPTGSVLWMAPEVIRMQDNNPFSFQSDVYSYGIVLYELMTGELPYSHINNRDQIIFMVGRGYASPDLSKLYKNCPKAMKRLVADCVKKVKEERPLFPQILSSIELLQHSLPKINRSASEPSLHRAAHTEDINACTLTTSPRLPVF

[26] = molecular target: RAF proto-oncogene serine/threonine-protein kinase (Homo sapiens) (UniProt P04049); experiment: Inhibition of c-Raf in human A549 cells assessed as downregulation of ERK1/2 expression after 48 hrs by Western blot analysis; type: cell-based
[27] = molecular target: RAF proto-oncogene serine/threonine-protein kinase (Homo sapiens) (UniProt P04049); experiment: Inhibition of c-Raf in human A549 cells assessed as downregulation of phosphorylated ERK1/2 expression after 48 hrs by Western blot analysis; type: cell-based
[28] = system: A549; experiment: Induction of apoptosis in human A549 cells assessed as viable cells at 5 uM after 48 hrs by Annexin-V-FITC/Propidium iodide staining based flow cytometric analysis (reference value: 92.46 +/- 4.23%); type: functional; conditions: A549, 48 h, read-out: Activity
[29] = system: A549; experiment: Cell cycle arrest in human A549 cells assessed as accumulation at S phase at 5 uM by propidium iodide staining based flow cytometric analysis (reference value: 23.41 +/- 2.19%); type: functional
[30] = system: A549; experiment: Cell cycle arrest in human A549 cells assessed as accumulation at S phase at 20 uM by propidium iodide staining based flow cytometric analysis (reference value: 23.41 +/- 2.19%); type: functional
[31] = system: A549; experiment: Cell cycle arrest in human A549 cells assessed as accumulation at G2/M phase at 10 uM by propidium iodide staining based flow cytometric analysis (reference value: 12.77 +/- 1.55%); type: functional
[32] = system: A549; experiment: Cell cycle arrest in human A549 cells assessed as accumulation at G2/M phase at 5 uM by propidium iodide staining based flow cytometric analysis (reference value: 12.77 +/- 1.55%); type: functional
[33] = system: A549; experiment: Cell cycle arrest in human A549 cells assessed as accumulation at G2/M phase at 20 uM by propidium iodide staining based flow cytometric analysis (reference value: 12.77 +/- 1.55%); type: functional
[34] = system: A549; experiment: Induction of apoptosis in human A549 cells assessed as increase in ROS production at 20 uM after 12 hrs by DCF staining based luminescence spectrometric analysis relative to control; type: functional
[35] = system: A549; experiment: Disruption of mitochondrial membrane potential in human A549 cells at 10 uM by JC-1 staining based laser scanning confocal microscopic analysis; type: functional, cell-based
[36] = system: A549; experiment: Disruption of mitochondrial membrane potential in human A549 cells assessed as ratio of green to red fluorescence intensity at 20 uM after 24 hrs by JC-1 staining based flow cytometric analysis; type: functional
[37] = system: A549; experiment: Effect on total Rb level in human A549 cells after 48 hrs by Western blot analysis; type: ADME, cell-based; conditions: a549, 48 h

`COc1cc2ncnc(NCc3cccc(NC(=O)Nc4ccc(C(C)(C)C)cc4)c3)c2cc1OC` showed a pIC50 [1] of 5.17, a pIC50 [2] of 5.28 and a pIC50 [3] of 4.58. For the same compound, the “Ratio IC50” value [4] was over 5, the Activity [5] was 5.97% and the Activity [6] was 0.44%. The Activity [7] was 12.2%, the Activity [8] was 2.54% and the Activity [9] was 7.84%. For the same compound, the Activity [10] was 14.2%, the Activity [11] was 6.91% and the Activity [12] was 95.33%. It also gave an Activity [13] of 1.83%, an Activity [14] of 7.83% and an Activity [15] of 66.29%. It also gave an Activity [16] of 5.65%, an Activity [17] of 42.2% and an Activity [18] of 85.44%. For the same compound, the Ratio [19] was 75, the Activity [20] was “Dose-dependent effect” and the Activity [21] was “Dose-dependent effect”. The Activity [22] was “Dose-dependent effect”, the Activity [23] was “Dose-dependent effect” and the Activity [24] was “Dose-dependent effect”. For the same compound, the inhibition [25] was “Dose-dependent effect”, the inhibition [26] was “Dose-dependent effect” and the inhibition [27] was “Dose-dependent effect”. For the same compound, the viability at 5 µM [28] was 75.4%, the Activity [29] was 20.28% and the Activity [30] was 3.6%. It also gave an Activity [31] of 7.65%, an Activity [32] of 13.43% and an Activity [33] of 1.07%. For the same compound, the Activity [34] was 80.9%, the Activity [35] was “Active” and the Ratio [36] was 125. The Activity [37] was “Non-toxic”.
